Measurements reported in PubChem BioAssay AID652148 (Molecular Libraries Program, Specialized Chemistry Center, …, 2013).
Activity calls are given as the source filed them. No rule for the calls is given here.

Each molecule was assayed against Rho GTPase-activating protein 1 (Homo sapiens) (UniProt Q07960) (assay: ARHGAP1 GAP activity inhibitors on Rac1 – biochemical, Biomol green phosphate read-out, selectivity assay for MgcRacGAP inhibitor project, dose response (AID 652148)). Conditions: p50RhoGAP-stimulated Rac1 GTP hydrolysis.
Sequence of Rho GTPase-activating protein 1 (Homo sapiens) (Q07960 whole entry, looked up): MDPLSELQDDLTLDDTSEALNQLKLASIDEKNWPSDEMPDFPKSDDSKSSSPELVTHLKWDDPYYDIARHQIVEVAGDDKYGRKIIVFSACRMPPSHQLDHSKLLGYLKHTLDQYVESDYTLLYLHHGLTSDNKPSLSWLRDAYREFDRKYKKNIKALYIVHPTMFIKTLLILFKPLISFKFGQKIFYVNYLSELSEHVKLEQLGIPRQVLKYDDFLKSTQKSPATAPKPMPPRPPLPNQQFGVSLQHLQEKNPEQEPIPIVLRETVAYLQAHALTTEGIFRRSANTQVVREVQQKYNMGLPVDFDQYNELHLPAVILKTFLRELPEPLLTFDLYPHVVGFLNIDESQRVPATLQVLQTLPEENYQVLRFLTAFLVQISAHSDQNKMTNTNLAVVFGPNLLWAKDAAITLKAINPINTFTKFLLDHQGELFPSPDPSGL

Row | Structure (SMILES) | IC50 [µM]
1 | O=C(O)C1CSC(c2ccco2)N1 (stereo unspecified) | 16.1
2 | O=C1C=CC(=O)N1c1ccccc1N1C(=O)C=CC1=O | 15.7
3 | CCN1CCN(Cc2ccc(NC(=O)c3ccc(C)c(/C=C/c4cnc(Nc5cc(N6CCNCC6)nc(C)n5)cn4)c3)cc2C(F)(F)F)CC1 | 54.1
4 | CC1OC(CC(=O)O)CC2=C1C(=O)c1c(O)cccc1C2=O (stereo unspecified) | 8.81
5 | CN(C)c1nc(=NCc2cccs2)ss1 | 14.7
6 | O=C1NC(=S)N(c2ccccc2)C(=O)/C1=C/c1ccco1 | 3.99
7 | O=c1c2ccccc2sn1-c1cccc(Cl)c1 | 11.2
8 | CSc1nc(N)c(N=Nc2ccc([As](=O)(O)O)cc2)c(=O)[nH]1 | 3.09
9 | O=C(O)c1cccc(-n2sc3ccccc3c2=O)c1 | 10.3
10 | Cc1cc(C)c2c(=N)c3ccccc3n(CCCCCCCCn3c4ccccc4c(=N)c4c(C)cc(C)nc43)c2n1 | 22.2
11 | O=C1C(=Cc2ccco2)CCC1=Cc1ccco1 | 26.8
12 | CN(C)c1ccc(C=c2c3cc(O)ccc3n3c2cc(-c2ccccc2)[n+]3C)cc1 | 36.2
13 | CCN(CC)c1ccc(C(=C2C=CC(=[N+](CC)CC)C=C2)c2ccc(N(CC)CC)cc2)cc1 | 22.1
14 | O=C1C=CC(=O)c2c(O)c(N3CCN(CCOCCO)CC3)c(Br)c(O)c21 | 32.6
15 | O=C(Nc1ccccc1Cl)/C(Cl)=C(\Cl)S(=O)c1ccccc1 (stereo unspecified) | 20.7
16 | O=c1c2cc(F)ccc2sn1-c1ccccc1Cl | 24.5
17 | CC(=O)Nc1ccc2sn(-c3ccccc3)c(=O)c2c1 | 22.3
18 | O=C1C(Cl)=C(NC(=O)c2ccccc2)C(=O)C(Cl)=C1NC(=O)c1ccccc1 | 46
19 | O=c1c2cc(F)ccc2sn1-c1ccccc1 | 2.06
20 | O=c1c2ccccc2sn1-c1ccc(F)cc1 | 35.4
21 | CN(C)c1ncc(C2=C(Cl)C(=O)C(N3CCCC3)=C(Cl)C2=O)s1 | 10.7
22 | O=C(O)c1cc(N2N=C(C(F)(F)F)/C(=C/C=C/c3ccco3)C2=O)ccc1Cl | 4.68
23 | Cn1ccc(=Nc2ccc(NC(=O)c3ccc(N=c4ccn(C)c5ccc([N+](=O)[O-])cc45)cc3)cc2)cc1 | 22.2
24 | COc1ccc(-n2sc3ccc(F)cc3c2=O)cc1 | 15
25 | O=c1c2ccccc2sn1-c1ccc(Cl)cc1 | 12.3
26 | O=C1C=CC(=O)c2c(O)c(N3CCN(CCO)CC3)c(Cl)c(O)c21 | 36.5

Same assay, conditions: p50RhoGAP-stimulated Rac1 GTP hydrolysis, at 100 µM (top of the series)

Row | Structure (SMILES) | inhibition
27 | CC1=NNC(=O)C1Br (stereo unspecified) | inactive
28 | Cc1cc(N)c2cc(NC(=O)/C=C/c3ccccc3Cl)ccc2n1 | inactive
29 | Cc1ccc(C)c(-n2sc3ccc(F)cc3c2=O)c1 | inactive
30 | Nc1n[nH]c(=S)n1/N=C1/C(=O)Nc2ccccc21 | inactive
31 | Cc1ccc(-n2sc3cc(F)ccc3c2=O)c(C)c1 | inactive
32 | COC(=O)c1cccc(-n2sc3ccccc3c2=O)c1 | inactive
33 | O=c1c2sc3ccccc3c2[nH]c(=S)n1CCN1CCOCC1 | inactive
34 | Cc1c(Cl)sn(-c2ccc(Cl)cc2)c1=O | inactive
35 | Nc1ccc(OCc2ccco2)cc1 | inactive
36 | COc1ccc(NC2CCCN(C(=O)C3(C)CCCCC3)C2)cc1 (stereo unspecified) | inactive
37 | COc1ccc(/C=N/Nc2cc(C)nc3ccc(OC)cc23)c(OC)c1 | inactive
38 | O=C(O)c1cc(N2C(=O)C=CC2=O)cc(N2C(=O)C=CC2=O)c1 | inactive
39 | O=c1c2ccccc2sn1-c1ccccc1F | inactive
40 | C[n+]1c(-c2ccc(C=NNC(=O)c3ccc(C(=O)NN=Cc4ccc(-c5cn6ccccc6[n+]5C)cc4)cc3)cc2)cn2ccccc21 | inactive
41 | CN(C)c1ccc(/C=C/c2cc[n+](C)c3ccccc23)cc1 | inactive
42 | O=c1c2ccc(F)cc2sn1-c1ccccc1 | inactive
43 | O=c1c2ccccc2sn1-c1ccc(Cl)cc1Cl | inactive
44 | COc1ccc(-n2sc3ccccc3c2=O)cc1 | inactive
45 | O=C1C(SCCO)=C(SCCO)C(=O)c2ccccc21 | inactive
46 | COc1ccc(Nc2ccc3ccccc3c2)cc1 | inactive
